These results are taken from patent US12258329B2 (Merck Sharp & Dohme LLC, priority 2018, dated 2025).

The test system of this assay is infected PBMCs (VSV-G pseudotyped HIV virus VSV-G/pNLG1-P2A-ΔEnv). Put plainly: cells. Format: cell-based, human. The following applies: Homo sapiens, PBMC, read-out: TACK EC50.
Take `Cc1cc(C#N)cc(Oc2c(C(F)(F)C(F)(F)F)ncn(Cc3c(C)nc(C)[nH]c3=O)c2=O)c1` [Example 88]: the EC50 (commonly the concentration at which the effect is half-maximal) is 397 nM.

For the molecule `CCc1cc(C#N)c(F)c(Oc2c(C(F)(F)C(F)F)ncn(Cc3c(C)nc(C)[nH]c3=O)c2=O)c1` [Example 42, 3-((1-((2,4-dimethyl-6-oxo-1,6-dihydropyrimidin-5-yl)methyl)-6-oxo-4-(1,1,2,2-tetrafluoroethyl)-1,6-dihydropyrimidin-5-yl)oxy)-5-ethyl-2-fluorobenzonitrile], the EC50 was 308 nM.

Turning to `Cc1nc(C)c(Cn2cnc(C(C)(F)F)c(Oc3c(C)cc(C#N)cc3C(F)(F)F)c2=O)c(=O)[nH]1` [Example 16, 4-((4-(1,1-difluoroethyl)-1-((4-hydroxy-2,6-dimethylpyrimidin-5-yl)methyl)-6-oxo-1,6-dihydropyrimidin-5-yl)oxy)-3-methyl-5-(trifluoromethyl)benzonitrile], the EC50 came to 199 nM.

On to `Cc1nc(C)c(Cn2cnc(C(F)(F)C(F)(F)F)c(Oc3cc(Br)cc(C#N)c3)c2=O)c(=O)[nH]1` [Example 86, 3-bromo-5-((1-((2,4-dimethyl-6-oxo-1,6-dihydropyrimidin-5-yl)methyl)-6-oxo-4-(perfluoroethyl)-1,6-dihydro-pyrimidin-5-yl)oxy)benzonitrile], for which the EC50 amounted to 473 nM.

With `Cc1cc(C#N)c(F)c(Oc2c(C(F)(F)C(F)F)ncn(Cc3c(C)nc(C)[nH]c3=O)c2=O)c1` [Example 40, 3-((1-((2,4-dimethyl-6-oxo-1,6-dihydropyrimidin-5-yl)methyl)-6-oxo-4-(1,1,2,2-tetrafluoroethyl)-1,6-dihydropyrimidin-5-yl)oxy)-2-fluoro-5-methylbenzonitrile], the EC50 came out at 198 nM.

As to `Cc1cc(C#N)c(F)c(Oc2c(C(C)(F)F)ncn(Cc3c(C)nc(C)[nH]c3=O)c2=O)c1` [Example 41, 3-((4-(1,1-difluoroethyl)-1-((2,4-dimethyl-6-oxo-1,6-dihydropyrimidin-5-yl)methyl)-6-oxo-1,6-dihydropyrimidin-5-yl)oxy)-2-fluoro-5-methylbenzonitrile], the EC50 is 363 nM.

As for `Cc1nc(N)c(Cn2cnc(C(F)(F)C(F)F)c(Oc3cc(Cl)cc(C#N)c3F)c2=O)c(=O)[nH]1` [Example 39, 3-((1-((4-amino-2-methyl-6-oxo-1,6-dihydropyrimidin-5-yl)methyl)-6-oxo-4-(1,1,2,2-tetrafluoroethyl)-1,6-dihydropyrimidin-5-yl)oxy)-5-chloro-2-fluorobenzonitrile], the EC50 worked out at 265 nM.

As for `Cc1nc(CO)[nH]c(=O)c1Cn1cnc(C(F)(F)C(F)F)c(Oc2cc(C(F)F)cc(C#N)c2C)c1=O` [Example 48, 5-(difluoromethyl)-3-((1-((2-(hydroxymethyl)-4-methyl-6-oxo-1,6-dihydropyrimidin-5-yl)methyl)-6-oxo-4-(1,1,2,2-tetrafluoroethyl)-1,6-dihydropyrimidin-5-yl)oxy)-2-methylbenzonitrile], the EC50 was 342 nM.

`COC(=O)CCc1nc(C)c(Cn2cnc(C(F)(F)C(F)(F)F)c(Oc3cc(Cl)cc(C#N)c3F)c2=O)c(=O)[nH]1` [Example 56, Methyl 3-(5-((5-(5-chloro-3-cyano-2-fluorophenoxy)-6-oxo-4-(perfluoroethyl)pyrimidin-1 (6H)-yl)methyl)-4-methyl-6-oxo-1,6-dihydropyrimidin-2-yl)propanoate]: the EC50 stood at 161 nM.

Take `Cc1nc(C)c(Cn2cnc(C(C)F)c(Oc3cc(C(F)F)cc(C#N)c3C)c2=O)c(=O)[nH]1` (single isomer, unassigned) [Example 28]: the EC50 is 208 nM.

As for `Cc1c(C#N)cc(C(F)F)cc1Oc1c(C(F)(F)C(F)F)ncn(Cc2cnc(CCCO)[nH]c2=O)c1=O` [Example 46, 5-(difluoromethyl)-3-((1-((2-(3-hydroxypropyl)-6-oxo-1,6-dihydropyrimidin-5-yl)methyl)-6-oxo-4-(1,1,2,2-tetrafluoroethyl)-1,6-dihydropyrimidin-5-yl)oxy)-2-methylbenzonitrile], the EC50 worked out at 303 nM.
